This test concerns the target T1, angiotensin I-converting enzyme (ACE) (Oryctolagus cuniculus, UniProt P12822).
T1 construct: purchased Sigma Chemical Co. (St. Louis, MO, USA)
T1 sequence (P12822 34-1310): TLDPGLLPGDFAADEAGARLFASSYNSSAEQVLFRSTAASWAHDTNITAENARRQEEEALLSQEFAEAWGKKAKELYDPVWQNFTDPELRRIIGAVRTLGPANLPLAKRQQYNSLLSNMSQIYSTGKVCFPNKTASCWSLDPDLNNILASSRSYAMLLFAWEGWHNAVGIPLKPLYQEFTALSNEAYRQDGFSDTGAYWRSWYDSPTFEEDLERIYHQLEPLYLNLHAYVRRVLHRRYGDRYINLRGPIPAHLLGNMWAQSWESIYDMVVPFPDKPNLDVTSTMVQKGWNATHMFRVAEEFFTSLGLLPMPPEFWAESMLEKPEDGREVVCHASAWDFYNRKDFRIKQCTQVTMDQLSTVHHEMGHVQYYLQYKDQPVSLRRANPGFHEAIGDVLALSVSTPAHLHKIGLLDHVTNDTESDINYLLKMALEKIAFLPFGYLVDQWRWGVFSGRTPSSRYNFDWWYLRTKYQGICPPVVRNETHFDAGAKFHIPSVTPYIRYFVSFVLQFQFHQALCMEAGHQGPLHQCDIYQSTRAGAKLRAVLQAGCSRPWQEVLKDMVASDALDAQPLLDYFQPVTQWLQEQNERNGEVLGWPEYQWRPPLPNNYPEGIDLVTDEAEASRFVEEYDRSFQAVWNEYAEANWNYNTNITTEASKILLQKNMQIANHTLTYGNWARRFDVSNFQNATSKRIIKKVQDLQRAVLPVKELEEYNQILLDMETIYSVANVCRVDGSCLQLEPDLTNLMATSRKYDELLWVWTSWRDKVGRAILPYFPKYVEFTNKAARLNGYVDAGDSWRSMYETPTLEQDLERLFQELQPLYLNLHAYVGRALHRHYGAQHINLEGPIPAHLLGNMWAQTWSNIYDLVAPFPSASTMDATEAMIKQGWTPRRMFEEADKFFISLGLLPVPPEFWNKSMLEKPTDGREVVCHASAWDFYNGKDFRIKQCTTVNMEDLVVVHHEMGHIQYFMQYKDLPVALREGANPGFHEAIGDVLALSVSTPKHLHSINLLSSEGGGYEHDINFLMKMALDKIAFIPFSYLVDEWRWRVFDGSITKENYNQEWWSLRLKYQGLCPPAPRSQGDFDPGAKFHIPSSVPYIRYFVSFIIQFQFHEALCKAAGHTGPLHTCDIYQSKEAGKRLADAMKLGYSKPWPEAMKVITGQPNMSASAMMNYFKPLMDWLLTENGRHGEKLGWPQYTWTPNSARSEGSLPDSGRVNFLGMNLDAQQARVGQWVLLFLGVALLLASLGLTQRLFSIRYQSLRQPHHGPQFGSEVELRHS
As to the kind of experiment: ACE inhibitory activity assay (HHL substrate, HPLC detection of hippuric acid). The test is classed as biochemical. The conditions noted are these: chemically synthesized peptides. The method, then: ACE inhibitory activity was measured as previously described by Cushman and Cheung with minor modifications. A 10 μL sample solution (50 mM borate, pH 8.3) was added to 30 μL 2.5 mM HHL solution and incubated for 5 min at 37 °C. Subsequently, 20 μL of 0.1 U/mL ACE solution (50 mM borate, 0.3 M NaCl, pH 8.3) was added and the mixture was incubated at 37 °C for 60 min. The reaction was terminated by adding 70 μL of 1 M HCl. A blank sample of buffer alone was used as a negative control. Samples were filtered through a 0.45 μm nylon syringe filter and then separated on a C18 column (4.6 mm × 150 mm, 5 μm). HA and HHL were detected by absorbance at 228 nm. The column was eluted at a flow rate of 0.8 mL/min using a mobile phase composed of (A) 0.05% TFA in water and (B) 0.05% TFA in acetonitrile. The elution was carried out using a gradient of 10%–60% B in the first 10 min followed by 60%–10% B in the next 2 min. HA was quantified by integration of peak areas (A). Percent ACE inhibition was calculated according to the following equation: [drawing 1] (1)
The ACE inhibitory peptides identified by nano-LC MS/MS were synthesized using the solid phase method and purified by HPLC by GenScript Corporation (Nanjing, China). The ACE inhibitory activity of these chemically synthesized peptides was determined as described in Section 3.3.

Values joined by “and” are separate entries in the source; they are usually repeats but may differ in a detail not shown here. Equal values may be shown once. Residues, ends and D or L forms follow the SMILES beside them. No end group written: not given here.

In general, IC50 refers to the midpoint of a concentration-inhibition curve. Low values mean greater potency, high ones weaker potency.

Regarding `N=C(N)NCCC[C@H](NC(=O)[C@H](CCCCN)NC(=O)[C@@H](N)Cc1ccccc1)C(=O)O` [FKR] (H-Phe-Lys-Arg-OH), inhibition was half-maximal at 77.9 µM (IC50).

With `CC(C)C[C@H](NC(=O)[C@H](C)NC(=O)[C@@H](N)CC(C)C)C(=O)N[C@@H](CCCNC(=N)N)C(=O)O` [LALR] (H-LALR-OH), the IC50 worked out at 1270 µM.

`CC(C)C[C@H](N)C(=O)N[C@@H](CCC(=O)O)C(=O)NCC(=O)N[C@@H](CCCNC(=N)N)C(=O)O` [LEGR] (H-LEGR-OH) registered an IC50 of 1090 µM.

In the case of `CC(C)C[C@H](N)C(=O)N[C@@H](Cc1ccccc1)C(=O)N[C@@H](CCCNC(=N)N)C(=O)O` [LFR] (H-Leu-Phe-Arg-OH), the IC50 worked out at 31.8 µM.

In turn, `CC(C)C[C@H](NC(=O)[C@H](CCCCN)NC(=O)[C@@H](N)CC(C)C)C(=O)N1CCC[C@H]1C(=O)O` [LKLP] (H-LKLP-OH) yielded an IC50 of 367 µM.

With `CC(C)C[C@H](NC(=O)[C@H](CC(C)C)NC(=O)[C@@H](N)CC(C)C)C(=O)N[C@@H](CCCNC(=N)N)C(=O)O` [LLLR] (H-LLLR-OH), half-maximal inhibition (IC50) was put at 1000 µM.

Regarding `CC(C)C[C@H](NC(=O)[C@@H](N)CC(C)C)C(=O)N[C@@H](CCCNC(=N)N)C(=O)N[C@@H](Cc1c[nH]cn1)C(=O)O` [LLRH] (H-LLRH-OH), the IC50 is 308 µM.

With `CC(C)C[C@H](N)C(=O)N[C@@H](CCCNC(=N)N)C(=O)O` [LR], 158 µM corresponded to half-maximal inhibition (IC50).

In turn, `CC(C)C[C@H](N)C(=O)N[C@H](C(=O)N[C@@H](CCCCN)C(=O)N[C@@H](Cc1ccccc1)C(=O)O)C(C)C` [LVKF] (H-LVKF-OH) gave a concentration for half-maximal inhibition (IC50) of 24.6 µM.

Regarding `NC(N)=NCCC[C@H](NC(=O)[C@@H](N)CCCN=C(N)N)C(=O)O` [RR] (H-Arg-Arg-OH), 482 µM corresponded to half-maximal inhibition (IC50).

`CC(C)[C@H](N)C(=O)N[C@@H](CCCCN)C(=O)N[C@@H](Cc1ccccc1)C(=O)O` [VKF] (H-Val-Lys-Phe-OH) had a 50% inhibitory concentration (IC50) of 10.4 µM.

With HFEAMR [HFEAMR], the IC50 came out at 192 µM.

Molecule LASPTM [LASPTM] showed a half-maximal inhibitory concentration (IC50) of 59.8 µM.

Molecule LFVAAP [LFVAAP] had an IC50 of 70.2 µM.

LGALPF [LGALPF] returned a half-maximal inhibitory concentration (IC50) of 2690 µM.

In turn, LGECGGR [LGECGGR] had an IC50 of 233 µM.

For the molecule LLHSPP [LLHSPP], the IC50 worked out at 222 µM.

LLMPK [LLMPK] showed a half-maximal inhibitory concentration (IC50) of 686 µM.

Take LYHVL [LYHVL]: the IC50 came out at 17.5 µM.

MPFLFK [MPFLFK] had a half-maximal inhibitory concentration (IC50) of 92.4 µM.

PLFPK [PLFPK] gave a half-maximal inhibitory concentration (IC50) of 41.3 µM.

VFKAF [VFKAF] displayed an IC50 of 100 µM.

Take VVCVPW [VVCVPW]: the half-inhibitory concentration (IC50) was 4.07 µM and 4.1 µM.
